Laboratory results from patent US20210045385A1, “PYRIDAZINONE-SUBSTITUTED KETOXIMES AS HERBICIDES” (FMC Corporation, priority 2018, published 2021).

Columns and labels:
Assay type in all cases: in vivo
[1] = tested on: Italian ryegrass (Lolium multiflorum); experiment: Test A preemergence, visual plant response rating; details: for Ryegrass, Italian plant response rating: 125 g ai/ha, preemergence, 0 to 100 scale, 0 no effect, 100 complete control; for Ryegrass, Italian plant response rating (0 to 100 scale): 500 g ai/ha Preemergence, approx. 10 days
Summary of the method: (§1)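 Formulated in a non-phytotoxic solvent mixture including surfactant, each test chemical was sprayed onto the soil surface after sowing, or onto seedlings 2 to 10 cm high. Roughly 10 days later, plants were compared with untreated controls and rated for injury from 0 (no effect) to 100 (complete control).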

[2] = tested on: barnyardgrass (Echinochloa crus-galli); experiment: Test A preemergence, visual plant response rating; details: for Barnyardgrass plant response rating: 125 g ai/ha, preemergence, 0 to 100 scale, 0 no effect, 100 complete control; for Barnyardgrass plant response rating (0 to 100 scale): 500 g ai/ha Preemergence, approx. 10 days
Summary of the method: as §1

[3] = tested on: foxtail, green (green foxtail, Setaria viridis); experiment: Test A preemergence, visual plant response rating; details: for Foxtail, Green plant response rating: 125 g ai/ha, preemergence, 0 to 100 scale, 0 no effect, 100 complete control; for Foxtail, Green plant response rating (0 to 100 scale): 500 g ai/ha Preemergence, approx. 10 days
Summary of the method: as §1

kochia (Kochia scoparia) [4] = experiment: Test A preemergence, visual plant response rating; details: for Kochia plant response rating: 125 g ai/ha, preemergence, 0 to 100 scale, 0 no effect, 100 complete control; for Kochia plant response rating (0 to 100 scale): 500 g ai/ha Preemergence, approx. 10 days
Summary of the method: as §1

[5] = tested on: pigweed (Amaranthus retroflexus); experiment: Test A preemergence, visual plant response rating; details: for Pigweed plant response rating: 125 g ai/ha, preemergence, 0 to 100 scale, 0 no effect, 100 complete control; for Pigweed plant response rating (0 to 100 scale): 500 g ai/ha Preemergence, approx. 10 days
Summary of the method: as §1

[6] = tested on: ragweed (common ragweed, Ambrosia elatior); experiment: Test A preemergence, visual plant response rating; details: for Ragweed plant response rating: 125 g ai/ha, preemergence, 0 to 100 scale, 0 no effect, 100 complete control; for Ragweed plant response rating (0 to 100 scale): 500 g ai/ha Preemergence, approx. 10 days
Summary of the method: as §1

[7] = tested on: Italian ryegrass (Lolium multiflorum); experiment: Test A postemergence, visual plant response rating; details: for Ryegrass, Italian plant response rating (0 to 100 scale): 500 g ai/ha, postemergence, 0 is no effect, 100 is complete control; for Ryegrass, Italian plant response rating: Postemergence, 125 g ai/ha, 0 to 100 scale (0 no effect, 100 complete control)
Summary of the method: as §1

[8] = tested on: barnyardgrass (Echinochloa crus-galli); experiment: Test A postemergence, visual plant response rating; details: for Barnyardgrass plant response rating (0 to 100 scale): 500 g ai/ha, postemergence, 0 is no effect, 100 is complete control; for Barnyardgrass plant response rating: Postemergence, 125 g ai/ha, 0 to 100 scale (0 no effect, 100 complete control)
Summary of the method: as §1

[9] = tested on: blackgrass (Alopecurus myosuroides); experiment: Test A postemergence, visual plant response rating; details: for Blackgrass plant response rating (0 to 100 scale): 500 g ai/ha, postemergence, 0 is no effect, 100 is complete control; for Blackgrass plant response rating: Postemergence, 125 g ai/ha, 0 to 100 scale (0 no effect, 100 complete control)
Summary of the method: as §1

corn (Zea mays) = experiment: Test A postemergence, visual plant response rating; details: for Corn plant response rating (0 to 100 scale): 500 g ai/ha, postemergence, 0 is no effect, 100 is complete control; for Corn plant response rating: Postemergence, 125 g ai/ha, 0 to 100 scale (0 no effect, 100 complete control)
Summary of the method: as §1

[10] = tested on: foxtail, green (green foxtail, Setaria viridis); experiment: Test A postemergence, visual plant response rating; details: for Foxtail, Green plant response rating (0 to 100 scale): 500 g ai/ha, postemergence, 0 is no effect, 100 is complete control; for Foxtail, Green plant response rating: Postemergence, 125 g ai/ha, 0 to 100 scale (0 no effect, 100 complete control)
Summary of the method: as §1

[11] = tested on: galium (catchweed bedstraw, Galium aparine); experiment: Test A postemergence, visual plant response rating; details: for Galium plant response rating (0 to 100 scale): 500 g ai/ha, postemergence, 0 is no effect, 100 is complete control; for Galium plant response rating: Postemergence, 125 g ai/ha, 0 to 100 scale (0 no effect, 100 complete control)
Summary of the method: as §1

kochia (Kochia scoparia) [12] = experiment: Test A postemergence, visual plant response rating; details: for Kochia plant response rating (0 to 100 scale): 500 g ai/ha, postemergence, 0 is no effect, 100 is complete control; for Kochia plant response rating: Postemergence, 125 g ai/ha, 0 to 100 scale (0 no effect, 100 complete control)
Summary of the method: as §1

[13] = tested on: pigweed (Amaranthus retroflexus); experiment: Test A postemergence, visual plant response rating; details: for Pigweed plant response rating (0 to 100 scale): 500 g ai/ha, postemergence, 0 is no effect, 100 is complete control; for Pigweed plant response rating: Postemergence, 125 g ai/ha, 0 to 100 scale (0 no effect, 100 complete control)
Summary of the method: as §1

[14] = tested on: ragweed (common ragweed, Ambrosia elatior); experiment: Test A postemergence, visual plant response rating; details: for Ragweed plant response rating (0 to 100 scale): 500 g ai/ha, postemergence, 0 is no effect, 100 is complete control; for Ragweed plant response rating: Postemergence, 125 g ai/ha, 0 to 100 scale (0 no effect, 100 complete control)
Summary of the method: as §1

[15] = tested on: wheat (Triticum aestivum); experiment: Test A postemergence, visual plant response rating; details: for Wheat plant response rating (0 to 100 scale): 500 g ai/ha, postemergence, 0 is no effect, 100 is complete control; for Wheat plant response rating: Postemergence, 125 g ai/ha, 0 to 100 scale (0 no effect, 100 complete control)
Summary of the method: as §1

[16] = tested on: barnyardgrass (Echinochloa crus-galli); experiment: Test B flooded paddy test, visual plant response rating; details: 250 g ai/ha, Flood, applied to paddy water, 2-leaf stage, evaluated after 13 to 15 days
Summary of the method: (§2)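 Plants were raised to the 2-leaf stage, then pots were flooded to 3 cm above the soil and test compound was applied directly into the paddy water. Water depth was held for the whole test; after 13 to 15 days in a greenhouse, responses were scored visually against controls.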

[17] = tested on: ducksalad (Heteranhera limosa); experiment: as above; details: 250 g ai/ha, Flood, applied to paddy water, 2-leaf stage, evaluated after 13 to 15 days
Summary of the method: as §2

rice (Oryza sativa) = experiment: as above; details: 250 g ai/ha, Flood, applied to paddy water, 2-leaf stage, evaluated after 13 to 15 days
Summary of the method: as §2

[18] = tested on: sedge, umbrella (small-flower umbrella sedge, Cyperus difformis); experiment: as above; details: 250 g ai/ha, Flood, applied to paddy water, 2-leaf stage, evaluated after 13 to 15 days
Summary of the method: as §2

SMILES	Ryegrass, Italian plant response rating [1]	Ryegrass, Italian plant response rating (0 to 100 scale) [1]	Barnyardgrass plant response rating [2]	Barnyardgrass plant response rating (0 to 100 scale) [2]	Foxtail, Green plant response rating [3]	Foxtail, Green plant response rating (0 to 100 scale) [3]	Kochia plant response rating (kochia (Kochia scoparia) [4])	Kochia plant response rating (0 to 100 scale) (kochia (Kochia scoparia) [4])	Pigweed plant response rating [5]	Pigweed plant response rating (0 to 100 scale) [5]	Ragweed plant response rating [6]	Ragweed plant response rating (0 to 100 scale) [6]	Ryegrass, Italian plant response rating (0 to 100 scale) [7]	Ryegrass, Italian plant response rating [7]	Barnyardgrass plant response rating (0 to 100 scale) [8]	Barnyardgrass plant response rating [8]	Blackgrass plant response rating (0 to 100 scale) [9]	Blackgrass plant response rating [9]	Corn plant response rating (0 to 100 scale) (corn (Zea mays))	Corn plant response rating (corn (Zea mays))	other results
CO/N=C(\c1cc(C)ccc1C)c1c(O)c(C)nn(C)c1=O [Compound 66]	30	50	0	20	30	60	0	20	30	80	20	50	80	30	30	10	50	0	0	0	Foxtail, Green plant response rating (0 to 100 scale) [10]: 20; Foxtail, Green plant response rating [10]: 0; Galium plant response rating (0 to 100 scale) [11]: 80; Galium plant response rating [11]: 60; Kochia plant response rating (0 to 100 scale) (kochia (Kochia scoparia) [12]): 40; Kochia plant response rating (kochia (Kochia scoparia) [12]): 20; Pigweed plant response rating (0 to 100 scale) [13]: 50; Pigweed plant response rating [13]: 50; Ragweed plant response rating (0 to 100 scale) [14]: 50; Ragweed plant response rating [14]: 40; Wheat plant response rating (0 to 100 scale) [15]: 10; Wheat plant response rating [15]: 0; Plant response rating, Barnyardgrass (0 to 100 scale, 0 is no effect, 100 is complete control) [16]: 0; Plant response rating, Ducksalad (0 to 100 scale, 0 is no effect, 100 is complete control) [17]: 0; Plant response rating, Rice (0 to 100 scale, 0 is no effect, 100 is complete control) (rice (Oryza sativa)): 0; Plant response rating, Sedge, Umbrella (0 to 100 scale, 0 is no effect, 100 is complete control) [18]: 0
CON=C(c1cccc(C)c1)c1c(O)c(Cl)nn(C)c1=O [Compound 128]	0	20	0	30	0	10	30	80	100	80	60	80	10	0	30	10	10	0	0	0	Foxtail, Green plant response rating (0 to 100 scale) [10]: 30; Foxtail, Green plant response rating [10]: 20; Galium plant response rating (0 to 100 scale) [11]: 90; Galium plant response rating [11]: 70; Kochia plant response rating (0 to 100 scale) (kochia (Kochia scoparia) [12]): 70; Kochia plant response rating (kochia (Kochia scoparia) [12]): 50; Pigweed plant response rating (0 to 100 scale) [13]: 60; Pigweed plant response rating [13]: 30; Ragweed plant response rating (0 to 100 scale) [14]: 80; Ragweed plant response rating [14]: 50; Wheat plant response rating (0 to 100 scale) [15]: 10; Wheat plant response rating [15]: 0; Plant response rating, Barnyardgrass (0 to 100 scale, 0 is no effect, 100 is complete control) [16]: 0; Plant response rating, Ducksalad (0 to 100 scale, 0 is no effect, 100 is complete control) [17]: 40; Plant response rating, Rice (0 to 100 scale, 0 is no effect, 100 is complete control) (rice (Oryza sativa)): 30; Plant response rating, Sedge, Umbrella (0 to 100 scale, 0 is no effect, 100 is complete control) [18]: 0
